Activity calls are given as the source filed them. No cut-off for these calls is given here.
Assays:
HEK293 [1] = assay: Effect to arrest G2/M-phase on HEK 293 cells at 25 uM was determined; format: functional, Homo sapiens
HEK293 [2] = assay: Effect to arrest S-phase on HEK 293 cells at 25 uM was determined; format: functional, Homo sapiens
HEK293 [3] = assay: Effect to arrest GI-phase on HEK 293 cells at 25 uM was determined; format: functional, Homo sapiens
HEK293 [4] = assay: Effect to arrest S-phase on HEK 293 cells at 10 uM was determined; format: functional, Homo sapiens
HEK293 [5] = assay: Effect to arrest GI-phase on HEK 293 cells at 10 uM was determined; format: functional, Homo sapiens
HEK293 [6] = assay: Effect to arrest G2/M-phase on HEK 293 cells at 10 uM was determined; format: functional, Homo sapiens
HEK293 [7] = assay: Effect to arrest S-phase on HEK 293 cells at 50 uM was determined; Not significant; format: functional, cell-based; settings: Homo sapiens
HEK293 [8] = assay: Effect to arrest G2/M-phase on HEK 293 cells at 50 uM was determined; format: functional, Homo sapiens
HEK293 [9] = assay: Effect to arrest S-phase on HEK 293 cells at 50 uM was determined; format: functional, Homo sapiens
HEK293 [10] = assay: Effect to arrest GI-phase on HEK 293 cells at 50 uM was determined; format: functional, Homo sapiens
HEK293 [11] = assay: Effect to arrest S-phase on HEK 293 cells at 1 uM was determined; format: functional, Homo sapiens
HEK293 [12] = assay: Effect to arrest GI-phase on HEK 293 cells at 1 uM was determined; format: functional, Homo sapiens
HEK293 [13] = assay: Effect to arrest G2/M-phase on HEK 293 cells at 1 uM was determined; format: functional, Homo sapiens
HEK293 [14] = assay: Compound was tested for inhibition of HEK293 proliferation; format: functional, cell-based; settings: Homo sapiens

Row | Structure (SMILES) | Effect (HEK293 [4]) | Effect (HEK293 [5]) | Effect (HEK293 [6]) | Activity (HEK293 [7]) | also measured
1 | COc1ccc2c(c1OCc1ccsc1)C(=O)O[C@@H]2[C@H]1c2c(cc3c(c2OC)OCO3)CCN1C |  |  |  |  | Effect (HEK293 [1]): 10%; Effect (HEK293 [2]): 62%; Effect (HEK293 [3]): 28%
2 | COc1ccc2c(c1SCc1ccccc1)C(=O)O[C@@H]2[C@H]1c2c(cc3c(c2OC)OCO3)CCN1C | 65% | 24% | 11% |  | 
3 | COc1ccc2c(c1OCc1csc(C)n1)C(=O)O[C@@H]2[C@H]1c2c(cc3c(c2OC)OCO3)CCN1C | 62% | 28% | 10% |  | 
4 | COc1ccc2c(c1-c1ccc(C(C)(C)C)cc1)C(=O)O[C@@H]2[C@H]1c2c(cc3c(c2OC)OCO3)CCN1C |  |  |  | inactive | 
5 | COc1ccc2c(c1OC)C(=O)O[C@@H]2[C@H]1c2c(cc3c(c2OC)OCO3)CCN1C [NOSCAPINE] |  |  |  |  | Effect (HEK293 [8]): 76%; Effect (HEK293 [9]): 18%; Effect (HEK293 [10]): 6%
6 | COc1cc(-c2c(OC)ccc3c2C(=O)O[C@@H]3[C@H]2c3c(cc4c(c3OC)OCO4)CCN2C)cc(OC)c1OC |  |  |  | inactive | 
7 | COc1ccc2c(c1-c1ccc(N(C)C)cc1)C(=O)O[C@@H]2[C@H]1c2c(cc3c(c2OC)OCO3)CCN1C |  |  |  | inactive | 
8 | COc1ccc2c(c1-c1cc(F)cc(F)c1)C(=O)O[C@@H]2[C@H]1c2c(cc3c(c2OC)OCO3)CCN1C |  |  |  | inactive | 
9 | COc1cc(COc2c(OC)ccc3c2C(=O)O[C@@H]3[C@H]2c3c(cc4c(c3OC)OCO4)CCN2C)cc(OC)c1OC | 65% | 19% | 16% |  | Effect (HEK293 [8]): 6%; Effect (HEK293 [11]): 65%; Effect (HEK293 [12]): 24%; Effect (HEK293 [9]): 84%; Effect (HEK293 [10]): 13%; Effect (HEK293 [13]): 11%; EC50 (HEK293 [14]): 1.9 µM
10 | COc1ccc2c(c1-c1ccsc1)C(=O)O[C@@H]2[C@H]1c2c(cc3c(c2OC)OCO3)CCN1C |  |  |  | inactive | 
11 | COc1ccc2c(c1OCc1ccccc1)C(=O)OC2[C@H]1c2c(cc3c(c2OC)OCO3)CCN1C (stereo not given in full) | 57% | 28% | 17% |  | Effect (HEK293 [1]): 15%; Effect (HEK293 [8]): 10%; Effect (HEK293 [2]): 71%; Effect (HEK293 [9]): 67%; Effect (HEK293 [10]): 23%; EC50 (HEK293 [14]): 15 µM; Effect (HEK293 [3]): 12%
12 | COc1cc2c(c(OC)c1OC)-c1ccc(OC)c(=O)cc1[C@@H](NC(C)=O)CC2 [COLCHICINE] | 14% | 3% | 83% |  | 

Reference: ChEMBL document CHEMBL1143587, “Discovery of S-phase arresting agents derived from noscapine” (J Med Chem, 2005)
